Assay results reported in patent US9351998B2, “Methods of nourishing animals” (MariCal, Inc., priority 2008, dated 2016).

System: avian CaSR
Assay: FURA2 ratio imaging fluorimetry of HEK cells stably expressing avian (chicken) CaSR
Format: cell-based
Excerpt: All methods and equipment utilized to perform experiments on HEK cells have been reported previously (Gama, L. and Breitwieser, G. E. 1998. A carboxyl-terminal domain controls the cooperativity for extracellular Ca2+ activation of the human calcium sensing receptor. A study with receptor-green fluorescent protein fusions. J. Biol. Chem. 273, 29712-29718; Bai, M., Quinn, S., Trivedi, S., Kifor, 0., Pearce, S. H., Pollak, M. R., Krapcho, K., Hebert, S. C. and Brown, E. M. 1996. Expression and characterization of inactivating and activating mutations in the human Ca2+o-sensing receptor. J. Biol. Chem. 271, 19537-19544). Untransfected HEK cells or, alternatively, cells transfected and expressing CaSR protein were cultured in Dulbecco's Modified Eagle Medium containing 10% fetal bovine serum and 1% penicillin-streptomycin in 75 cm^2 flasks until they reached confluence. Media was removed from the flasks and cells were loaded by exposure to Loading Buffer (125 mM NaCl, 4 mM KCl, 1.0 mMCaCl2, 1.0 mM MgCl2, 1 mM NaH2PO4, 20 mM HEPES, 1 gm/liter bovine serum albumin, and 1 gm/l glucose, pH ˜7.4, osmolality ˜285) containing 4.1 micromolar FURA2-AM (Molecular Probes Inc. Eugene, Oreg.) for 2 hr. Cells were then scraped from the surface of the flask using a standard cell scraper (Costar 3010, Corning Inc.). Cells were then pelleted from the suspension by low speed centrifugation to remove loading buffer and rinsed twice to remove extracellular FURA2 dye by two sequential suspensions and pelleting steps using low speed centrifugation. Immediately prior to the start of the experiment, cells were resuspended in various experimental buffers for analyses as described below. The Standard Experimental Buffer used for many studies was composed of: 125 mM NaCl, 4 mM KCl, 0.5 mMCaCl2, 0.5 mM MgCl2, 20 mM HEPES, 1 g/l glucose, pH ˜7.4, osmolality ˜285. All other buffers were variations on this basic composition where specific components within the Standard Experimental Buffer were varied while the remaining components were held constant.
Cell suspensions consisting of a total volume of 3 ml were analyzed in a PTI fluorimeter (PTI Model 814 Photomultiplier Detection System equipped with SC-500 Shutter Controller and PTI Driver and Analysis Software) within approximately 20 min after exposure to experimental buffers. Data was acquired using standard ratio image analysis as described previously using a data acquisition rate of 1.3 sec. for 500 or 1000 second intervals.
In selected experiments, the detergent Triton X-100 was added in order to lyse the cells and quantify differences in FURA2 ratio fluorescence. Triton X-100 was added to the cells to obtain a maximal fluorescence signal from the FURA2 for purposes of quantification.
The ability of the CaSR modulator MC0100 to potentiate the response of avian and mammalian CaSRs to the chelated mineral amino acid complex, ZnPro, was tested. For avian CaSR experiments, three individual aliquots from a single pool of HEK cells that stably express the recombinant avian CaSR protein were used for ratio imaging fluorimetry assays of CaSR activation generally as described in Example 6 herein. […] In all aliquots, the detergent Triton X-100 was added as the last addition to lyse the cells (FIG. 29A).
From a single pool of HEK cells stably expressing the avian CaSR, aliquots of cells were removed and analyzed using ratio imaging fluorimetry generally as described in Example 6 herein. After a standard addition of Ca++ to a final concentration of 2.5 mM, either 0.0025%, 0.025% or 0.25% Zinc Proteinate was added followed by a second addition of Ca++ to a final concentration of 7.5 mM. Subsequently, an aliquot of the detergent Triton X-100 was added to lyse the cells. […] The magnitude of the subsequent CaSR response to Ca++ was reduced via increasing Zn Proteinate stimulation.
Fluorimetry analysis was performed on HEK cells expressing the recombinant chicken CaSR protein generally as described in Example 6 herein.

## COc1cccc([C@@H](C)NCCCc2ccccc2)c1 [MC0100]
1 micromolar MC0100, buffer 1.5 mM Ca2+
  effect of prior modulator on CaSR response to 0.25% Mintrex Zn: potentiated the response
MC0100 added before ZnPro
  effect of modulator on CaSR response to ZnPro: potentiates the response
MC0100 at final 1 micromolar, buffer 1.5 mM Ca2+
  CaSR response to the modulator itself: yielded a response
After addition of 2.5 mM Ca++ (FIG. 36)
  CaSR response to stepwise additions: increased responses
